In one experiment the test system is mTORC1. The experiment can be described thus: mTORC1 activation (pS6K1 immunoblot) in leucine-starved HEK293T cells. In kind it is cell-based. To be noted: HEK293T cells starved of leucine 50 minutes, treatment 10 minutes. The method, then:
(§1) All cell lines were cultured in DMEM (Corning, #MT10013CV) supplemented with 10% heat-inactivated FBS (Gibco, #16140–071). All cell lines were maintained at 37°C and 5% CO2. For amino acid starvation, cells were rinsed once with and incubated Amino acid-free RPMI (US Biologicals, #R8999-04A) supplemented with 10% dialyzed FBS (Gibco, #26400044) for 50 min followed by treatment with NV-5297, leucine, or vehicle for 10 minutes. For leucine starvation, cells were rinsed once with and incubated in leucine-free DMEM (AthenaES, #0420) supplemented with 10% dialyzed FBS (Gibco, #26400044) for 50 minuted followed by treatment with NV-5297, leucine, or vehicle for 10 minutes.
(A) Activation of the mTORC1 pathway by NV-5297. […] (B) NV-5297 disrupts Sestrin2/GATOR2 in the in vitro Sesn2/WDR24 protein-protein interaction assay in a dose-dependent manner. […] Representative immunoblots of ^T389pS6K1 and quantification of the normalized level of ^T389pS6K1 from 8 independent experiments (F) show TORC1 activity in unedited HEK-293T cells, HEK-293T cells deficient for Sestrin 1 (Sesn1), 2 (Sesn2) and 3 (Sesn3) (D) or HEK-293T cells deficient for the GATOR1 component Nprl3 (E) after 50 minutes leucine starvation followed by the addition of vehicle, NV-5297 or leucine for 10 minutes. […]
On the technique in general: Immunoblotting shows a protein as a band on a membrane.

For experiment [1], the target named is T1, Sestrin2/GATOR2 interaction (Homo sapiens, UniProt P58004).
T1 construct: endogenous in cells; host or cells: Flag-WDR24 293T (HEK293T) cells
T1 sequence (P58004 1-480): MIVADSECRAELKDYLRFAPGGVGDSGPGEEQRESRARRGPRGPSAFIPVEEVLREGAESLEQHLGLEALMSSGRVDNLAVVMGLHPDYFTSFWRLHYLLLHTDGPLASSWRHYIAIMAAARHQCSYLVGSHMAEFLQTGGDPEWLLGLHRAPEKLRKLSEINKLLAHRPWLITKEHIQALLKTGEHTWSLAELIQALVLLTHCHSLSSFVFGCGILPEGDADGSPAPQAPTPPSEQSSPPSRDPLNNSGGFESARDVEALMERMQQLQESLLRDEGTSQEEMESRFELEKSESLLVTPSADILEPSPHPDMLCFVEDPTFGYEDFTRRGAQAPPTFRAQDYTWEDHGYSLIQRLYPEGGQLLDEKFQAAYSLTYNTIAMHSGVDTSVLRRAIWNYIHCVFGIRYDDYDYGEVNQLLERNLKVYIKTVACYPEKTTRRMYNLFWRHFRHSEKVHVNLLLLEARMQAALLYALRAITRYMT
The experiment can be described thus: Lysate-based (cell-free) Sestrin2/GATOR2 protein-protein interaction assay. The class given is binding. Conditions: added to immunoprecipitated Sestrin2/GATOR2 complexes from amino acid-starved flag-WDR24 HEK293T cells, 10 minutes. How it is done:
Flag-WDR24 293T cells were washed and placed in amino acid-free RPMI for 50 minutes. Cells were then rinsed once with ice-cold PBS and immediately lysed with Triton lysis buffer. The cell lysates were cleared by centrifugation at 13,200 rpm at 4°C in a microcentrifuge for 10 minutes. The anti-FLAG immunoprecipitations were performed as described above. Immunoprecipitated proteins (IPs) were resuspended in cytosolic buffer (40 mM HEPES pH 7.4, 140 mM KCl, 10 mM NaCl, 2.5 mM MgCl2, 0.1% TritonX-100) containing vehicle, NV-5297 or leucine at the indicated doses for 10 minutes. After compound incubation, IPs were collected by centrifugation, denatured, resolved by SDS-PAGE, and analyzed by immunoblotting.
Next, Sestrin2/GATOR2 protein-protein interactions in response to NV-5297 were measured using cell-free assays and in vitro. For this, HEK293T cells stably expressing flag-WDR24, a component of GATOR2 [44], were used. The cell-free assays utilized Sestrin2/GATOR2 complexes immunoprecipitated from amino acid-starved cells with an anti-flag antibody.

A further experiment concerns Npr13KO HEK293T cells. The experiment can be described thus: mTORC1 activation (p70S6K1) in HEK293T cells null for GATOR1 component Nprl3. To be noted: leucine-starved 50 minutes, treatment 10 minutes. The class given is cell-based. The method, then: as §1
To ascertain if Sestrins and the GATOR pathway are required for NV-5297 activity, we tested mTORC1 activation in cells null for either all three Sestrin isoforms [SesnTKO] or for the GATOR1 component Npr13 [Npr13KO] [44]. […]
(A) Activation of the mTORC1 pathway by NV-5297. […] Representative immunoblots of ^T389pS6K1 and quantification of the normalized level of ^T389pS6K1 from 8 independent experiments (F) show TORC1 activity in unedited HEK-293T cells, HEK-293T cells deficient for Sestrin 1 (Sesn1), 2 (Sesn2) and 3 (Sesn3) (D) or HEK-293T cells deficient for the GATOR1 component Nprl3 (E) after 50 minutes leucine starvation followed by the addition of vehicle, NV-5297 or leucine for 10 minutes. […]

Another experiment relates to mTORC1 pathway (pS6). The experiment can be described thus: pS6 immunoblot of striatum and heart after one week of oral dosing in N171-82Q HD mice. In kind it is in vivo. Conditions: N171-82Q mice, oral 160 mg/kg daily for one week. The method, then:
The initial trial consisted in one week of oral dosing in 12 weeks old N171-82Q males. The chronic 6 weeks treatment (Veh n = 15, NV-5297 n = 14) took place from 6 to 12 weeks of age. The cardiac stress took place in animals from 10 to 12 weeks of age (Veh-Sal n = 9, NV-Sal n = 10, Veh-Iso n = 16, NV-Iso n = 11).
Specific regions of the brain and heart were homogenized using a Next Advance Bullet Blender Storm in Lysis Buffer (Cell lysis buffer: 1% Triton X-100, 50 mM HEPES pH 7.4, 100 mM sodium chloride, 2 mM EDTA, 10 mM Beta-glycerophosphate, 10 mM Sodium pyrophosphate, and 1 protease inhibitor) at 4°C. Lysates were cleared by centrifugation at 13,200 rpm at 4°C for 10 minutes. Equal amounts of total protein from each sample were denatured and, resolved by SDS-PAGE. Membranes were imaged using the LI-COR imaging system. Proteins levels are normalized to tubulin, actin or GAPDH levels and further normalized to vehicle treated mice for each tissue.
Supplementary file pone.0273710.s002.tiff: S2 Fig Activation of the mTORC1 pathway in mice striatum and heart after oral dosing with NV-5297. (A) Representative immunoblot for the phosphorylated (^S240/244pS6), S6 and actin or tubulin in the striatum and heart of N171-82Q wild-type (WT) mice or N171-82Q HD mice respectively collected 1 hour after the last dose of a week of oral dosing with vehicle (Veh) or NV-5297 (160 mg/kg; A). Quantification of levels of ^S240/244pS6 in the striatum (B) and the heart (C) normalized to loading control levels and further normalized to untreated WT mice. Data are presented as mean ± SEM. **P ≤ 0.01, ***P ≤ 0.001 and ****P ≤ 0.0001 (Kruskal-Wallis test with Dunn’s multiple comparison tests). (TIFF) Click here for additional data file.

For `CC(C)(C[C@H](N)C(=O)O)C(F)(F)F` [NV-5297, (S)-2-amino-5,5,5-trifluoro-4,4-dimethylpentanoic acid], the “mTORC1 activation measured by phosphorylated S6K1 (pS6K1 / p70S6K1)” value in the experiment with mTORC1 is on record as “activates mTORC1 in leucine-starved HEK293T cells in a dose-dependent manner”. Moreover, the “Sestrin2/GATOR2 interaction (GATOR2-associated Sestrin2)” value in experiment [1] was “disrupted the Sestrin2/GATOR2 interaction in a dose-dependent manner”. The p70S6K1 levels entry in the experiment with Npr13KO HEK293T cells is reported as “remained unchanged”. Also, in the experiment on mTORC1 pathway (pS6), the “pS6 in heart relative to vehicle” value is recorded as “increased”; the “pS6 in striata relative to vehicle” value was “increased”; the “ratio of pS6 level in striatum and heart compared with age-matched WT mice” value is reported as “normalized”.

For the origin of these results see article PMC9423655, “Huntington’s disease phenotypes are improved via mTORC1 modulation by small molecule therapy” (PLoS ONE, 2022).
